These results are taken from US5525627A, “Esters of acyl carnitines with long-chain aliphatic alcohols and pharmaceutical compositions containing same having antimycotic activity” (Sigma-Tau Industrie Farmaceutiche Riunite S.p.A., priority 1992, dated 1996).

One experiment deals with Candida glabrata (ISS 1). Nature of the experiment: MIC for yeast and yeast-like strains. Type of experiment: cell-based. As to conditions: Nakaseomyces glabratus; 48 hours, 35° C.; read-out: Minimal Inhibitory Concentration (MIC). A digest of the protocol:
(§1)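 YNB + 0.15% asparagine + 1.0% glucose, 0.165 M MOPS buffer; Sabouraud broth overnight culture (Cryptococcus 48 h); final inoculum ~5.0×10^4 CFU/ml; fungal suspension and drug solution mixed 1:1 in microtiter wells.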

Experiment [1] deals with Candida guilliermondii (ISS 1). In words: MIC for yeast and yeast-like strains. Type of experiment: cell-based. The following applies: Meyerozyma guilliermondii; 48 hours, 35° C.; read-out: Minimal Inhibitory Concentration (MIC). Put shortly: as §1
Experiment [2] has as its system Candida tropicalis (ISS 1). In words: MIC for yeast and yeast-like strains. The class given is cell-based. As to conditions: 48 hours, 35° C., read-out: Minimal Inhibitory Concentration (MIC). A digest of the protocol:
as §1

In another experiment the test system is Candida albicans (ISS 1). Nature of the experiment: MIC for yeast and yeast-like strains. The class given is cell-based. As to conditions: 48 hours, 35° C., read-out: Minimal Inhibitory Concentration (MIC). Put shortly:
as §1

The test system of experiment [3] is Candida parapsilosis (ISS 1). In words: MIC for yeast and yeast-like strains. Type of experiment: cell-based. As to conditions: Lodderomyces parapsilosis; 48 hours, 35° C.; read-out: Minimal Inhibitory Concentration (MIC). Put shortly: as §1
The subject of experiment [4] is Cryptococcus neoformans (ISS 1). In words: MIC for yeast and yeast-like strains. As to conditions: 48 hours, 35° C., read-out: Minimal Inhibitory Concentration (MIC). Type of experiment: cell-based. Put shortly:
as §1

For experiment [5], the system named is Candida pseudotropicalis (EC 1). Nature of the experiment: MIC for yeast and yeast-like strains. Type of experiment: cell-based. The following applies: Kluyveromyces marxianus; 48 hours, 35° C.; read-out: Minimal Inhibitory Concentration (MIC). A digest of the protocol: as §1
The subject of experiment [6] is Candida albicans (ATCC 2091). Nature of the experiment: MIC for yeast and yeast-like strains. Type of experiment: cell-based. As to conditions: ATCC2091, 48 hours, 35° C., read-out: Minimal Inhibitory Concentration (MIC). Put shortly: as §1
Experiment [7] has as its system Trichophyton menthagrophites (ATCC 9533). Nature of the experiment: MIC for dermatophytic fungi. The class given is cell-based. The following applies: ATCC9533, 35° C., 96 hours, read-out: Minimal Inhibitory Concentration (MIC). As to the method:
(§2) The following strains were used: Trichophyton menthagrophytes ATCC 9533, Trichophyton rubrum IHEM 4274, Microsporum canis IHEM 3522, Epydermophyton floccosum IHEM 3495. The tested substances were: ST 722, ST 1033, ST 1037, ST 1050, ST 1051, ST 1052,. ST 1053.
(§3) The assay was performed following the same procedure described for the yeasts, by using 7-day fungi cultures grown at 30° C. in Potato Dextrose agar, and harvested with Sabouraud broth and Tween 80 (0.5%).
(§4) After washing with Yeast Nitrogen Base, supplemented with asparagine and glucose (as carbon source), the fungal suspension was fragmented using a tissue grinder until the largest clumps or aggregates were undetectable within the grinder. This fungal suspension was then appropriately diluted in YNB to yield a concentration of 2.0×10^5 infective particles/ml (small mycelium fragments, micro-and macroaleuriospores).
(§5) Volumes of 100 μl both of the fungal suspensions and substance solutions, two-fold serially diluted in assay medium, were distributed into each well of a microtiter plate (96 wells, round bottom), which was incubated at 35° C. for 96 hours.

For experiment [8], the system named is Trichophyton rubrum (IHEM 4274). Nature of the experiment: MIC for dermatophytic fungi. The class given is cell-based. The following applies: 35° C., 96 hours, read-out: Minimal Inhibitory Concentration (MIC). As to the method: as §2, §3, §4, §5
Experiment [9] relates to Microsporum canis (IHEM 3522). In words: MIC for dermatophytic fungi. Type of experiment: cell-based. The following applies: 35° C., 96 hours, read-out: Minimal Inhibitory Concentration (MIC). As to the method:
as §2, §3, §4, §5

Experiment [10] concerns Epidermophyton floccosum (IHEM 3495). Nature of the experiment: MIC for dermatophytic fungi. Type of experiment: cell-based. As to conditions: 35° C., 96 hours, read-out: Minimal Inhibitory Concentration (MIC). Here is the method: as §2, §3, §4, §5
The next experiment deals with C. albicans ISS 1. In words: Experimental subcutaneous infection with Candida albicans in mice. The class given is in vivo, Candida albicans in mice (male CD1 outbred). Here is the method: Male CD1 outbred mice (IFFA Credo) aged 8 weeks were used (4 animals per group).
A pathogenic strain of Candida was used, namely C. albicans ISS 1.
The infected animals were treated with ST 722 dissolved in saline, and Miconazole diluted in saline from a stock solution containing 1% Dimethyl Formamide.
From an overnight broth culture of C. albicans in Sabouraud broth, a fungal suspension was prepared in sterile saline containing 5.0×10^5 cells/mi. An inoculum of 0.5 ml of this suspension was injected subcutaneously into the abdominal wall of each animal.
The compounds were then administered by subcutaneous injection in the same area of the fungal challenge at the dose of 50 mcg (in 0.2 ml of saline) immediately after the inoculum and following 48 and 96 hours (150 total mcg per animal).
Then, 48 hours following the last treatment (6 days after the challenge with Candida), the animals were sacrificed, and the abdominal wall as well as the peritoneum were dissected out.
The excised tissues were then homogenized in 5 ml of sterile saline with a Potter-Elvehjem tissue grinder. The resulting suspensions, appropriately diluted, where plated onto Petri dishes containing a selective agar medium (BIGGY agar), which allows to easily detect the yeast Colony Forming Units (CFU/ml).
The number of colonies scored in a series of dilutions for each single sample consents to calculate the number of yeast cells present in the infected tissue sample as follows: [formula] Where Zi is the number of dilutions performed, Ni is the number of plates prepared for each dilution, and Ci is the total number of yeast cells scored in each dilution.

The next experiment concerns filamentous fungi. In words: MIC / MFC for filamentous fungi, all strains. The class given is cell-based, Aspergillus, Fusarium, Mucor, Penicillium. The following applies: versus susceptible strains; read-out: Mean MIC values. Put shortly: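 MIC and MFC values were evaluated as previously reported, with testing done as for yeast-like fungi. The inoculum was 5.0×10^4 CFU/ml of conidia washed from 72-hour Sabouraud agar with Sabouraud medium plus Tween 80.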

“And” between values parts separate entries of the source, which are not always exact repeats. Equal entries are not always repeated.

In the case of `CCCCCCCCCCCOC(=O)C[C@H](C[N+](C)(C)C)OC(=O)CC(C)C` [ST 722, isovaleryl-L-carnitine undecyl ester chloride], the MIC with Candida glabrata (ISS 1) stood at 6.25 µg/mL; in [1] it was 6.25 µg/mL; in [2] it was 3.12 µg/mL; in the experiment on Candida albicans (ISS 1), 1.56 µg/mL; in experiment [3], 6.25 µg/mL; in [4], 3.12 µg/mL. The MIC in [5] came out at 6.25 µg/mL; in experiment [6] it was 3.12 µg/mL; in experiment [7] it was 25 µg/mL; in experiment [8], 12.5 µg/mL; in [9], 25 µg/mL; in experiment [10], 50 µg/mL. In addition, the MIC in the experiment with filamentous fungi stood at 16.4 µg/mL. In addition, the CFU/mouse entry in the experiment on C. albicans ISS 1 (individual samples 1-4, 50 mcg s.c. at 0, 48 and 96 hours (150 total mcg per animal)) was “sterile and 1.36 × 10^2 CFU/mouse”. In addition, the “effect on the infection with Candida” value in the experiment with C. albicans ISS 1 (s.c., 150 total mcg per animal) is “substantially inhibits the infection with Candida”. Also, the “sterile samples out of 4” value in the experiment with C. albicans ISS 1 (s.c., 150 total mcg per animal) worked out at 3 samples.
